Values of other authors as cited in patent US20080233128A1, “Treatment of Viral Infections” (priority 2006, published 2008).

Tested on: circulating T-cells

Substance: alemtuzumab
- time to full recovery of T-cells (after a single dose, FIG. 1): ≥ 3 months
- T-cell depletion (killing of circulating T-cells) (single dose, FIG. 1, mean ALC as a function of time): kill all circulating T-cells
